Legend:
spleen T cells = assay: T cell proliferation inhibition (CFSE, FACS), CD3/CD28-activated spleen T cells; type: cell-based, C57BL/6 mice; conditions: Mus musculus, T-cell, 72 h, Table 2, 3 days, relative to CD3/CD28+DMSO, read-out: Proliferation inhibition rate (%)
In short: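 Proliferation inhibition is expressed as a percentage versus CD3/CD28-stimulated DMSO controls, from CFSE dye dilution measured by FACS after 3 days at 37 °C. Compounds at 10, 30 and 50 μM (triplicate) on anti-CD3/CD28-activated (0.5 μg/mL each) C57BL/6 mouse spleen T cells, 2×10^5 per well.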

[1] = test system: psoriasis mouse animal model; assay: Psoriasis mouse animal model (imiquimod-induced); type: in vivo, BALB/c mice; conditions: 40 mg/kg intraperitoneally twice a day
From the text: To confirm the therapeutic effect of compounds according to the present invention on psoriasis, a psoriasis animal model was established to evaluate the alleviation of skin lesions and changes in immune cell profiles by administering Compound 69 or Compound 83 via injection.
To establish a psoriasis mouse animal model, BALB/c mice (7 weeks old, 20 g, female) were purchased from Hana Biotech Co. and allowed to acclimate to the housing environment for one week. Afterward, the fur on the dorsal area of the mice was initially shaved using a shaver, followed by complete removal with depilatory cream (Nicrin Cream, comprising thioglycolic acid 80%, manufactured by ILDONG Pharmaceutical CO., LTD). The mice were then housed for 24 hours to confirm any wounds on their backs.
Subsequently, in order to verify the preventive and therapeutic effects of compounds according to the present invention on psoriasis, five experimental groups were established as shown in FIG. 7 and Table 5. From the second to the fifth group, Aldara® cream was applied once daily for two weeks (14 days, total of 14 applications) at a dose of 80 mg (imiquimod, 4 mg) per mouse to induce psoriasis. Furthermore, to compare the preventive and therapeutic effects of compounds according to the present invention (Compound 69 and Compound 83) on psoriasis, 40 mg/kg of the compound per mouse was dissolved in DMSO corresponding to 10% of the dosing volume, and then diluted in a mixture of Cremophor EL-PEG 400-distilled water to achieve a final ratio of DMSO: Cremophor EL:PEG 400:distilled water to 1:1:4:4 (v/v/v/v). Subsequently, the respective injections were intraperitoneally administered at a dose of 100 μL per mouse, twice a day with a 12-hour interval. For the Vehicle control group, injections excluding the drug but comprising the vehicle solution (DMSO: Cremophor EL:PEG 400:distilled water=1:1:4:4 (v/v/v/v)) were administered at a dose of 100 μL per mouse, twice a day with a 12-hour interval.
To assess the impact of each compound on immune cells in vivo, the spleens of mice treated with each compound were harvested, and cells were extracted, and cells were suspended in MACS buffer (2 mM EDTA, 0.5% FBS, 137 mM NaCl, 2.7 mM KCl, 10 mM Na2HPO4, 1.8 mM KH2PO4, Miltenyi Biotech.). For flow cytometry analysis, each mouse's splenocytes were aliquoted at 5×10^5 cells per FACS tube (5 mL round tube, Falcon). To prevent non-specific antibody binding, each tube was treated with 1 μg/mL of anti-mouse CD16/CD32 (InVivoMAb) for 30 minutes, followed by centrifugation at 13,000 rpm for 5 minutes, and resuspended in 100 μL of MACS buffer. Subsequent experiments were conducted depending on the type of immune cells to be examined.
For B cells, each FACS tube was stained with 1 μg/mL of FITC-conjugated anti-B220 antibody (eBioscience™) at 4° C. for 30 minutes, followed by washing with 2 mL of MACS buffer. Subsequently, each tube was centrifuged at 15,000 rpm for 5 minutes, the supernatant was removed, and the precipitated cells were fixed using 200 μL of 4% paraformaldehyde solution.
For T cells, each FACS tube was stained with 1 μg/mL of PerCP-Cy5.5-conjugated anti-CD3 antibody (Biolegend), FITC-conjugated anti-CD8 antibody (eBioscience™) and Cy7-conjugated anti-CD4 antibody (eBioscience™) at 4° C. for 30 minutes, followed by washing with 2 mL of MACS buffer. Subsequently, each tube was centrifuged at 15,000 rpm for 5 minutes, the supernatant was removed, and the precipitated cells were fixed using 200 μL of 4% paraformaldehyde solution.
For macrophages, each FACS tube was stained with 1 μg/mL of FITC-conjugated anti-CD11b antibody (eBioscience™) at 4° C. for 30 minutes, followed by washing with 2 mL of MACS buffer. Subsequently, each tube was centrifuged at 15,000 rpm for 5 minutes, the supernatant was removed, and the precipitated cells were fixed using 200 μL of 4% paraformaldehyde solution.

[2] = test system: T lymphocyte cell line Jurkat E6-1; assay: Cytotoxicity experiment (CCK-8, relative cell survival); type: cell-based; conditions: 24 hours, untreated cells = 100%
In short: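 Relative survival versus untreated cells (set to 100%) from CCK-8 absorbance at 450 nm after 2 h dye incubation. Cells had been treated with graded compound concentrations for 24 h at 37 °C in 5% CO2, cultured in RPMI-1640 plus 10% FBS.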

[3] = flow cytometry, versus psoriasis groups, FIG. 10

Structure (SMILES): O=C(NCCCCCCCCCCCCO)c1ccccc1Br [Compound 83]
- inhibition at 10 µM (spleen T cells; 10 μM): 0%
- inhibition at 30 µM (spleen T cells; 30 μM): 63%
- inhibition at 50 µM (spleen T cells; 50 μM): 100%
- skin lesions (erythema, thickness, exfoliation of back skin) ([1]; 14 days, FIG. 8): either minimally present or hardly observed
- hyperkeratosis, parakeratosis, irregular acanthosis, infiltration of inflammatory cells (H&E staining) ([1]; 14 days, FIG. 9): either minimally present or hardly observed
- proportion of B cells in the spleen [1, 3]: increase
- proportion of CD11b granulocytes in the spleen [1, 3]: decreased
- proportion of T cells in the spleen [1, 3]: increase
- Relative cell survival rate (%) ([2]; 10 μM): 102%
- Relative cell survival rate (%) ([2]; 20 μM): 105%
- Relative cell survival rate (%) ([2]; 30 μM): 87%
- Relative cell survival rate (%) ([2]; 50 μM): 77%

— patent US20250296909A1, “NOVEL BENZENE DERIVATIVE AND IMMUNOSUPPRESSION-RELATED USE THEREOF” (PROVIBIO CO., LTD., priority 2021, published 2025)
